# In ChEMBL document CHEMBL1127244, “Alternative strategies towards the identification of chemical lead compounds by rational design” (Bioorg Med Chem Lett, 1994):
# Tests used:
# Neuromedin-K receptor [1] = molecular target: T1, Neuromedin-K receptor (Cavia porcellus, UniProt P30098); assay: Binding affinity towards Tachykinin receptor 3 in guinea pig cerebral cortex using [3H]senktide as radioligand; Inactive (>>10 uM); format: tissue-based
# T1 sequence (P30098 whole entry): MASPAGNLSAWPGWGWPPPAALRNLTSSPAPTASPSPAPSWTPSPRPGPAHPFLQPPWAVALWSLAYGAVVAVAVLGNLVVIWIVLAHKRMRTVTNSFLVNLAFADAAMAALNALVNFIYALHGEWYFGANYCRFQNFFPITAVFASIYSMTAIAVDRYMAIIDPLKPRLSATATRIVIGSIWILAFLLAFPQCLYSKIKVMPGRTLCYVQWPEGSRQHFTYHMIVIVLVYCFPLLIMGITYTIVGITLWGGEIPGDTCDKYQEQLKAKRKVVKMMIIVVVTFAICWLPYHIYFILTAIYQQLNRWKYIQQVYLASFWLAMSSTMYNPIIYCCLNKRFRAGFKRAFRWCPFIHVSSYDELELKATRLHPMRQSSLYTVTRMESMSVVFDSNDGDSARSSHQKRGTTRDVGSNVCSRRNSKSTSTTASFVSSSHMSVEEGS
# [2] = molecular target: T2, Cholecystokinin receptor type A (Rattus norvegicus, UniProt P30551); assay: Binding affinity towards CCK-A receptor in rat pancreas using [125I]Bolton-Hunter CCK-8 as radioligand; Value ranges from 11-16 uM; format: tissue-based
# T2 sequence (P30551 whole entry): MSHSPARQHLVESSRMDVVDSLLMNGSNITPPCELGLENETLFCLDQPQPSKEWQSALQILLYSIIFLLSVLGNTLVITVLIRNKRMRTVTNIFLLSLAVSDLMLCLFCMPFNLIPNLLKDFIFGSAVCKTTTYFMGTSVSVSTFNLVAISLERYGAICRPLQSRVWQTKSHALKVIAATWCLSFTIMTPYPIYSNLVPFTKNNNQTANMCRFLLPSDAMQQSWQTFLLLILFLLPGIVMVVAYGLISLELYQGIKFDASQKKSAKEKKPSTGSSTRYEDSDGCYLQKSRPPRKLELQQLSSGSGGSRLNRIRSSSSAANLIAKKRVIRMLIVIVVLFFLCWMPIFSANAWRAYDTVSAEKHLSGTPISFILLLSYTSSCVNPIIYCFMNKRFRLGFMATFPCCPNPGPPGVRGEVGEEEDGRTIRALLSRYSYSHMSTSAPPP
# [3] = molecular target: T3, Gastrin/cholecystokinin type B receptor (Mus musculus, UniProt P56481); assay: Binding affinity towards CCK-B receptor in mouse cerebral cortex using [125I]Bolton-Hunter CCK-8 as radioligand; Inactive (>>10 uM); format: tissue-based
# T3 sequence (P56481 whole entry): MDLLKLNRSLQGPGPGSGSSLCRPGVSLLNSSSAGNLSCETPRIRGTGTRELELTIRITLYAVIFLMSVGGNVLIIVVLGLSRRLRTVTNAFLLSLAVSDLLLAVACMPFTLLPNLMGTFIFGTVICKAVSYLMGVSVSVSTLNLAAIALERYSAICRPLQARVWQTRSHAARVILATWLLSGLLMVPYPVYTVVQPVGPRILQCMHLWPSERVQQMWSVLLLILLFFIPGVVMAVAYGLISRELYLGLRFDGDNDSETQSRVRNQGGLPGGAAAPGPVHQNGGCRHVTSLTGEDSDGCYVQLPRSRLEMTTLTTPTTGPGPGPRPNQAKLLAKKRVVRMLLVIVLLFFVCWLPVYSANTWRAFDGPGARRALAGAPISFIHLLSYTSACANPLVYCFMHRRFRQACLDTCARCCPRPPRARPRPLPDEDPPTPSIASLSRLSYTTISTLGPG
# Substance-P receptor [4] = molecular target: T4, Substance-P receptor (Cavia porcellus, UniProt P30547); assay: Binding affinity towards NK-1 receptor in guinea pig cerebral cortex using [125I]-Bolton-Hunter substance P as radioligand; Value ranges from 7.3-8.8 uM; format: tissue-based
# T4 sequence (P30547 whole entry): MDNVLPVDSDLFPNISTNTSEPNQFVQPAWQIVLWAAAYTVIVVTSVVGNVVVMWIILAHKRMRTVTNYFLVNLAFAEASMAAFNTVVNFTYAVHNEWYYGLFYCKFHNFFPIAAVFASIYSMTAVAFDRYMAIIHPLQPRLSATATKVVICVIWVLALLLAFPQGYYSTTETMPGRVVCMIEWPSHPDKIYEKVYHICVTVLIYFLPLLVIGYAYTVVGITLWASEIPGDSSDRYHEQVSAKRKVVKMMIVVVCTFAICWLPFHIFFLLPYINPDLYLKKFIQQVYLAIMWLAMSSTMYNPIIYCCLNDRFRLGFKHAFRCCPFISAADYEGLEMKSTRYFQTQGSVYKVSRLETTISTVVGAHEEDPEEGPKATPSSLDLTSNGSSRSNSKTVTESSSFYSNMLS
# Substance-K receptor [5] = molecular target: T5, Substance-K receptor (Mesocricetus auratus, UniProt P51144); assay: Binding affinity towards Tachykinin receptor 2 in hamster urinary bladder using [125I]-Neurokinin A as radioligand; Inactive (>>10 uM); format: tissue-based
# T5 sequence (P51144 whole entry): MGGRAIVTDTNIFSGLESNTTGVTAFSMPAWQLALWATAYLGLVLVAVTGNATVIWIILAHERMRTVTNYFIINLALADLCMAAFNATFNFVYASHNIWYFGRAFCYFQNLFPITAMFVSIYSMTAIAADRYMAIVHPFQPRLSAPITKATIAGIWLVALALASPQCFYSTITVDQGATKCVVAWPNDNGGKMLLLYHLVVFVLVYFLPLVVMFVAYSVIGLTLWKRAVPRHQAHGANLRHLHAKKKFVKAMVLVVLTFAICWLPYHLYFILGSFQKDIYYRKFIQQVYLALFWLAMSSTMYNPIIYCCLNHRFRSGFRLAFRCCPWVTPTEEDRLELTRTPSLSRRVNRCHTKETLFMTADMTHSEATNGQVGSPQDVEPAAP
# Substance-K receptor [6] = molecular target: T5, Substance-K receptor; assay: Binding affinity towards Tachykinin receptor 2 in hamster urinary bladder using [125I]neurokinin A as radioligand; Value ranges from 2.6-11 uM
# Substance-P receptor [7] = molecular target: T4, Substance-P receptor; assay: Binding affinity towards NK-1 receptor in guinea pig cerebral cortex using [125I]Bolton-Hunter substance P as radioligand; Inactive (>>10 uM); format: tissue-based
# [8] = molecular target: T3, Gastrin/cholecystokinin type B receptor; assay: Binding affinity towards CCK-B receptor in mouse cerebral cortex using [125I]Bolton-Hunter CCK-8 as radioligand; Value ranges from 7.8-9.3 uM; format: tissue-based
# [9] = molecular target: T2, Cholecystokinin receptor type A; assay: Binding affinity towards CCK-A receptor in rat pancreas using [125I]Bolton-Hunter CCK-8 as radioligand; Value ranges from 4.7-7.1 uM; format: tissue-based
# [10] = molecular target: T2, Cholecystokinin receptor type A; assay: Binding affinity towards CCK-A receptor in rat pancreas using [125I]Bolton-Hunter CCK-8 as radioligand; Value ranges from 12-20 uM; format: tissue-based
# Neuromedin-K receptor [11] = molecular target: T1, Neuromedin-K receptor; assay: Binding affinity towards Tachykinin receptor 3 in guinea pig cerebral cortex using [3H]senktide as radioligand; Value ranges from 5.8-14u M; format: tissue-based
# Substance-K receptor [12] = molecular target: T5, Substance-K receptor; assay: Binding affinity towards Tachykinin receptor 2 in hamster urinary bladder using [125I]neurokinin A as radioligand; Value ranges from 4.6-9.0 uM
# [13] = molecular target: T3, Gastrin/cholecystokinin type B receptor; assay: Binding affinity towards CCK-B receptor in mouse cerebral cortex using [125I]Bolton-Hunter CCK-8 as radioligand; Value ranges from 9.8-25 uM; format: tissue-based
# [14] = molecular target: T2, Cholecystokinin receptor type A; assay: Binding affinity towards CCK-A receptor in rat pancreas using [125I]Bolton-Hunter CCK-8 as radioligand; Value ranges from 3.3-5.4 uM; format: tissue-based
# [15] = molecular target: T2, Cholecystokinin receptor type A; assay: Binding affinity towards CCK-A receptor in rat pancreas using [125I]Bolton-Hunter CCK-8 as radioligand; Value ranges from 3.5-4.6 uM; format: tissue-based
# [16] = molecular target: T2, Cholecystokinin receptor type A; assay: Binding affinity towards CCK-A receptor in rat pancreas using [125I]Bolton-Hunter CCK-8 as radioligand; Value ranges from 4.1-6.4 uM; format: tissue-based
# Neuromedin-K receptor [17] = molecular target: T1, Neuromedin-K receptor; assay: Binding affinity towards Tachykinin receptor 3 in guinea pig cerebral cortex using [3H]senktide as radioligand; Value ranges from 8.2-9.4 uM; format: tissue-based
SMILES,IC50 (Neuromedin-K receptor [1]),IC50 [3],IC50 (Substance-K receptor [5]),IC50 (Substance-P receptor [7]),other results
O=C1CCN(C(=O)OCc2ccccc2)CC1Cc1ccccc1 (stereo unspecified),Not Active,Not Active,Not Active,,IC50 [2]: 13 µM; IC50 (Substance-P receptor [4]): 8.1 µM
O=C1CCN(C(=O)CCc2c[nH]c3ccccc23)CC1Cc1ccccc1 (stereo unspecified),Not Active,,,Not Active,IC50 (Substance-K receptor [6]): 6.9 µM
CCOP(=O)(OCC)OC1=CCN(Cc2ccccc2)CC1Cc1cn(C(=O)OC(C)(C)C)c2ccccc12 (stereo unspecified),Not Active,,Not Active,Not Active,IC50 [8]: 8.5 µM; IC50 [9]: 5.5 µM
O=C1CCN(Cc2ccccc2)CC1Cc1c[nH]c2ccccc12 (stereo unspecified),,Not Active,,Not Active,IC50 [10]: 16 µM; IC50 (Neuromedin-K receptor [11]): 10 µM; IC50 (Substance-K receptor [12]): 6.8 µM
O=C1[C@H](Cc2c[nH]c3ccccc23)CN(Cc2ccccc2)C[C@@H]1Cc1c[nH]c2ccccc12,Not Active,,Not Active,Not Active,IC50 [13]: 15 µM; IC50 [14]: 4.1 µM
O=C1C(Cc2c[nH]c3ccccc23)CN(Cc2ccccc2)C[C@@H]1Cc1c[nH]c2ccccc12 (stereo partly specified),Not Active,Not Active,Not Active,Not Active,IC50 [15]: 4 µM
CC(C)(C)OC(=O)n1cc(CC2CN(Cc3ccccc3)CCC2O)c2ccccc21 (stereo unspecified),Not Active,Not Active,Not Active,Not Active,IC50 [16]: 5.2 µM
OC1CCN(Cc2ccccc2)C[C@@H]1Cc1c[nH]c2ccccc12 (stereo partly specified),,,Not Active,Not Active,IC50 (Neuromedin-K receptor [17]): 8.8 µM
